Values joined by “and” are separate entries in the source; they are usually repeats but may differ in a detail not shown here. Equal entries are not always repeated. Structures can show the parent of a compound that is named as a salt.
System: 5-HT release in the rat prefrontal cortex
Test: Microdialysis: 5-HT release in prefrontal cortex after I.P. administration
Format: in vivo
Conditions: for 5-HT release (% of basal levels) measured in dialysates: individual animals, hydrochloride, 3 mg/kg; for 5-HT release (% of basal levels) measured in dialysates, MEAN / 5-HT (% of respective basal) MEAN: n = 8; for 5-HT (% of respective basal) MEAN: SON-117 group 0.1 mg/kg I.P.
Protocol: The aim of the study was to evaluate, using microdialysis, the effects of an intraperitoneal (I.P.) administration in rats of three different doses of SON-117 on dopamine and its metabolites, serotonin and its metabolite (5-HIAA), and norepinephrine levels in prefrontal cortex.
Thirty-two adult male Wistar rats were used for the whole study (4 groups of eight animals planned for the study, Table 1).
Surgery was performed on rats weighing about 300 g at the beginning of the experiments. Rats were anaesthetized with Ketamine (50 mg/kg) & Xylazine (15 mg/kg) by intramuscular administration. The animals were placed in a stereotaxic apparatus in the flat-skull position at a constant setting of −3.3 mm between ear bars and the incisor bar. The animals were treated with a local anesthesic (xylocaine 1%, Astra Zeneca) and an analgesic (Temgesic, from Schering Plough, 0.05 mg/kg, s.c.). A rostrocaudal midline incision was made with a lancet to expose the dorsal skull surface. The “stereotaxic zero” was defined by the Bregma in accordance with Paxinos and Watson's atlas (1986). A hole was drilled in the skull with a drill and the meninges were pierced with a sterile needle to implant a CMA12 guide cannula which later received the dialysis probe.
Coordinates used for implanting guide cannula in prefrontal cortex from Bregma were anteroposterior 3.7 mm, mediolateral 0.8 mm, and dorsoventral −2 mm (top of the probe was at −5 mm). The guide cannula was fixed to the skull with two stainless steel screws (1.88 mm outside diameter) anchored. An application of dental cement was added. A plastic collar allowed each animal to be tethered to a Swivel assembly of the CMA 120 awake animal system. Following surgery, rats were kept in individual cages and allowed to recover for a minimum of 3-5 days before the experimentation. The rats were handled and put in plastic bowl for 10 min at least every day to habituate the animals to their new environment for the dialysis. An I.P. administration with saline was also performed every day.
Dialysis probes (CMA12/3 mm, membrane, 20 kD cut-off, Carnegie Medicine, Stockholm, Sweden), were carefully washed before inserting into the guide cannula. The wash was performed with the artificial cerebrospinal fluid (aCSF) medium (NaCl 147 mM, KCl 2.7 mM, CaCl2 1.2 mM, MgCl2 0.85 mM) at room temperature. The dialysis system was then equilibrated at 20° C. at a perfusion rate of 1 μl/min with a Carnegie pump (CMA100). All catheters (FEP tubing, internal volume of 1.2 μl/10 cm, and tubing adaptors) used for microdialysis were treated in the same conditions.
The probes duly prepared were inserted into the guide cannula and the CMA120 Swivel assembly secured to the animal using a plastic collar. Flow through the dialysis probe with aCSF was maintained at a rate of 1 μl/min during the whole experimentation. The first four fractions (corresponding to 2 hours) were discarded to avoid the effects of parenchymal disturbance and to ensure that an approximate steady-state level was reached. Fractions were then collected over a period of 8.5 h during which time the animals remained quiet. The dialysates were automatically collected with an autosampler (microfraction collector CMA 140, Carnegie Medicin) and stored at −80° C. until analysis. […] Perfusion was then maintained for 7 hours with aCSF. The dialysates (30 μl) were collected into 300 μl vials, transferred into dry ice and then kept frozen (−80° C.) until analysis. Frozen samples were shipped to a partner for analysis. At the end of the microdialysis study, a PBS with colored ink was perfused through the probe in order to visualize the dialyzed area.
Catecholamine assay: Concentrations of dopamine, DOPAC, HVA, 5-HIAA, 5-HT, and norepinephrin were determined for each sample by HPLC coupled with electrochemical detection. […]

[1] = SON-117 3 mg/kg IP, T1 h 30-T2 h
[2] = SON-117 3 mg/kg IP, T1 h-T1 h 30
[3] = SON-117 3 mg/kg IP, T2 h 30-T3 h
[4] = SON-117 3 mg/kg IP, T2 h-T2 h 30
[5] = SON-117 3 mg/kg IP, T3 h 30-T4 h
[6] = SON-117 3 mg/kg IP, T3 h-T3 h 30
[7] = SON-117 3 mg/kg IP, T4 h 30-T5 h
[8] = SON-117 3 mg/kg IP, T4 h-T4 h 30
[9] = SON-117 3 mg/kg IP, T5 h 30-T6 h
[10] = SON-117 3 mg/kg IP, T5 h-T5 h 30
[11] = SON-117 3 mg/kg IP, T6 h 30-T7 h
[12] = SON-117 3 mg/kg IP, T6 h-T6 h 30
[13] = SON-117 3 mg/kg IP, T-1 h 30-T-1 h (pre-administration)

## Cc1nnc(-c2cc3c(OC[C@@H](O)CN4CCC(c5ccc(Cl)c(Cl)c5)CC4)cccc3o2)o1 [SON-117, (S)-1-(4-(3,4-dichlorophenyl)piperidino)-3-(2-(5-methyl-1,3,4-oxadiazol-2-yl)benzo(b)furan-4-yloxy)-2-propanol hydrochloride]
SON-117 3 mg/kg IP, T30-T1 h
  5-HT release (% of basal levels) measured in dialysates: 204.22 % of basal levels and 162.26 % of basal levels and 105.16 % of basal levels and 123.52 % of basal levels and 121.85 % of basal levels and 66.82 % of basal levels and 90.61 % of basal levels and 103.58 % of basal levels
[1]
  5-HT release (% of basal levels) measured in dialysates, MEAN: 172.47 % of basal levels
  5-HT release (% of basal levels) measured in dialysates: 272.64 % of basal levels and 219.61 % of basal levels and 141.23 % of basal levels and 159.07 % of basal levels and 135.20 % of basal levels and 206.96 % of basal levels and 105.40 % of basal levels and 139.63 % of basal levels
[2]
  5-HT release (% of basal levels) measured in dialysates, MEAN: 139.57 % of basal levels
  5-HT release (% of basal levels) measured in dialysates: 205.53 % of basal levels and 81.50 % of basal levels and 112.86 % of basal levels and 110.90 % of basal levels and 126.82 % of basal levels and 127.44 % of basal levels and 170.45 % of basal levels and 181.06 % of basal levels
[3]
  5-HT release (% of basal levels) measured in dialysates, MEAN: 134.29 % of basal levels
  5-HT release (% of basal levels) measured in dialysates: 158.52 % of basal levels and 136.53 % of basal levels and 84.73 % of basal levels and 118.94 % of basal levels and 141.58 % of basal levels and 105.71 % of basal levels and 168.18 % of basal levels and 160.12 % of basal levels
[4]
  5-HT release (% of basal levels) measured in dialysates, MEAN: 134.68 % of basal levels
  5-HT release (% of basal levels) measured in dialysates: 125.58 % of basal levels and 163.25 % of basal levels and 90.55 % of basal levels and 143.00 % of basal levels and 145.36 % of basal levels and 158.14 % of basal levels and 116.88 % of basal levels
[5]
  5-HT release (% of basal levels) measured in dialysates, MEAN: 122.79 % of basal levels
  5-HT release (% of basal levels) measured in dialysates: 112.86 % of basal levels and 166.51 % of basal levels and 77.19 % of basal levels and 149.84 % of basal levels and 120.64 % of basal levels and 72.84 % of basal levels and 159.63 % of basal levels
[6]
  5-HT release (% of basal levels) measured in dialysates, MEAN: 131.57 % of basal levels
  5-HT release (% of basal levels) measured in dialysates: 178.23 % of basal levels and 97.99 % of basal levels and 78.86 % of basal levels and 198.09 % of basal levels and 131.52 % of basal levels and 75.85 % of basal levels and 160.43 % of basal levels
[7]
  5-HT release (% of basal levels) measured in dialysates, MEAN: 263.96 % of basal levels
  5-HT release (% of basal levels) measured in dialysates: 119.63 % of basal levels and 88.15 % of basal levels and 75.09 % of basal levels and 174.97 % of basal levels and 117.70 % of basal levels and 1179.79 % of basal levels and 92.36 % of basal levels
[8]
  5-HT release (% of basal levels) measured in dialysates, MEAN: 118.76 % of basal levels
  5-HT release (% of basal levels) measured in dialysates: 40.46 % of basal levels and 171.66 % of basal levels and 76.54 % of basal levels and 186.25 % of basal levels and 112.71 % of basal levels and 98.26 % of basal levels and 145.41 % of basal levels
[9]
  5-HT release (% of basal levels) measured in dialysates, MEAN: 150.50 % of basal levels
  5-HT release (% of basal levels) measured in dialysates: 121.53 % of basal levels and 146.21 % of basal levels and 238.25 % of basal levels and 159.31 % of basal levels and 72.12 % of basal levels and 135.51 % of basal levels and 180.58 % of basal levels
[10]
  5-HT release (% of basal levels) measured in dialysates, MEAN: 176.38 % of basal levels
  5-HT release (% of basal levels) measured in dialysates: 118.62 % of basal levels and 189.63 % of basal levels and 161.82 % of basal levels and 191.70 % of basal levels and 132.84 % of basal levels and 100.25 % of basal levels and 410.45 % of basal levels and 105.75 % of basal levels
[11]
  5-HT release (% of basal levels) measured in dialysates, MEAN: 172.13 % of basal levels
  5-HT release (% of basal levels) measured in dialysates: 146.14 % of basal levels and 156.41 % of basal levels and 213.64 % of basal levels and 136.73 % of basal levels and 298.30 % of basal levels and 107.87 % of basal levels and 145.86 % of basal levels
[12]
  5-HT release (% of basal levels) measured in dialysates, MEAN: 156.40 % of basal levels
  5-HT release (% of basal levels) measured in dialysates: 135.63 % of basal levels and 218.45 % of basal levels and 123.22 % of basal levels and 169.93 % of basal levels and 132.54 % of basal levels and 87.76 % of basal levels and 130.92 % of basal levels and 252.75 % of basal levels
SON-117 3 mg/kg IP, T-30 min-T0 (pre-administration)
  5-HT release (% of basal levels) measured in dialysates, MEAN: 97.07 % of basal levels
[13]
  5-HT release (% of basal levels) measured in dialysates, MEAN: 101.16 % of basal levels
  5-HT release (% of basal levels) measured in dialysates: 104.98 % of basal levels and 84.68 % of basal levels and 89.82 % of basal levels
SON-117 3 mg/kg IP, T-1 h-T-30 min (pre-administration)
  5-HT release (% of basal levels) measured in dialysates, MEAN: 102.92 % of basal levels
SON-117 3 mg/kg IP, from 2 h to 3 h
  5-HT concentrations in prefrontal cortex, significant increase, max.: 175%
SON-117 3 mg/kg IP, from 5.5 h to 7 h
  5-HT concentrations in prefrontal cortex, significant increase: 272%
SON-117 3 mg/kg, 7 h after administration
  5-HT release, increase still present: 183%
SON-117 3 mg/kg, at 1 h
  levels of 5-HT compared to the citalopram treated group (significant): slightly lower
SON-117 3 mg/kg, at 5 h
  5-HT release, maximum increase observed: 272%
SON-117 3 mg/kg, at 5 h and 7 h
  levels of 5-HT compared to the citalopram treated group (significant): higher
T0-T30 min
  5-HT (% of respective basal) MEAN: 128.89 % of respective basal
T30-T1 h
  5-HT (% of respective basal) MEAN: 123.42 % of respective basal
T1 h 30-T2 h
  5-HT (% of respective basal) MEAN: 167.52 % of respective basal
T1 h-T1 h 30
  5-HT (% of respective basal) MEAN: 176.03 % of respective basal
T2 h 30-T3 h
  5-HT (% of respective basal) MEAN: 215.80 % of respective basal
T2 h-T2 h 30
  5-HT (% of respective basal) MEAN: 370.70 % of respective basal
T3 h 30-T4 h
  5-HT (% of respective basal) MEAN: 151.83 % of respective basal
T3 h-T3 h 30
  5-HT (% of respective basal) MEAN: 156.53 % of respective basal
T4 h 30-T5 h
  5-HT (% of respective basal) MEAN: 296.70 % of respective basal
T4 h-T4 h 30
  5-HT (% of respective basal) MEAN: 350.16 % of respective basal
T5 h 30-T6 h
  5-HT (% of respective basal) MEAN: 250.07 % of respective basal
T5 h-T5 h 30
  5-HT (% of respective basal) MEAN: 310.25 % of respective basal
T6 h 30-T7 h
  5-HT (% of respective basal) MEAN: 253.10 % of respective basal
T6 h-T6 h 30
  5-HT (% of respective basal) MEAN: 254.62 % of respective basal
T-30 min-T0 (before administration)
  5-HT (% of respective basal) MEAN: 112.68 % of respective basal
T-1 h 30-T-1 h (before administration)
  5-HT (% of respective basal) MEAN: 80.63 % of respective basal
T-1 h-T-30 min (before administration)
  5-HT (% of respective basal) MEAN: 106.27 % of respective basal

From patent publication US20250109127A1, “METHODS OF USE OF PHENOXYPROPYLAMINE COMPOUNDS TO TREAT DEPRESSION” (Minerva Neurosciences, Inc., priority 2013, published 2025)
